# According to ChEMBL document CHEMBL4680299 (Bioorg Med Chem Lett, 2021):
# Key:
# [1] = biological target: Metabotropic glutamate receptor 1 (Homo sapiens, UniProt Q13255); assay: Positive allosteric modulation of human mGluR1 in presence of EC20 concentration of glutamate by calcium mobilization assay; assay type: functional
# [2] = biological target: Metabotropic glutamate receptor 4 (Homo sapiens, UniProt Q14833); assay: Positive allosteric modulation of human mGluR4 by calcium mobilization assay; assay type: functional
# [3] = biological target: Metabotropic glutamate receptor 7 (Homo sapiens, UniProt Q14831); assay: Positive allosteric modulation of human mGluR7 in presence of EC20 concentration of L-AP4 by calcium mobilization assay; assay type: functional
# [4] = Protein binding in rat plasma assessed as fraction unbound; assay type: ADME, cell-free
# [5] = biological target: Metabotropic glutamate receptor 2 (Homo sapiens, UniProt Q14416); assay: Positive allosteric modulation of mGluR2 (unknown origin) by calcium mobilization assay; assay type: functional
# [6] = biological target: Metabotropic glutamate receptor 8 (Homo sapiens, UniProt O00222); assay: Positive allosteric modulation of mGluR8 (unknown origin) by calcium mobilization assay; assay type: functional
# [7] = biological target: Metabotropic glutamate receptor 5 (Homo sapiens, UniProt P41594); assay: Positive allosteric modulation of mGluR5 (unknown origin) by calcium mobilization assay; assay type: functional
# [8] = biological target: Metabotropic glutamate receptor 3 (Homo sapiens, UniProt Q14832); assay: Positive allosteric modulation of mGluR3 (unknown origin) by calcium mobilization assay; assay type: functional
# [9] = biological target: Metabotropic glutamate receptor 6 (Homo sapiens, UniProt O15303); assay: Positive allosteric modulation of mGluR6 (unknown origin) by calcium mobilization assay; assay type: functional
# Sequence of Metabotropic glutamate receptor 4 (Q14833 whole entry): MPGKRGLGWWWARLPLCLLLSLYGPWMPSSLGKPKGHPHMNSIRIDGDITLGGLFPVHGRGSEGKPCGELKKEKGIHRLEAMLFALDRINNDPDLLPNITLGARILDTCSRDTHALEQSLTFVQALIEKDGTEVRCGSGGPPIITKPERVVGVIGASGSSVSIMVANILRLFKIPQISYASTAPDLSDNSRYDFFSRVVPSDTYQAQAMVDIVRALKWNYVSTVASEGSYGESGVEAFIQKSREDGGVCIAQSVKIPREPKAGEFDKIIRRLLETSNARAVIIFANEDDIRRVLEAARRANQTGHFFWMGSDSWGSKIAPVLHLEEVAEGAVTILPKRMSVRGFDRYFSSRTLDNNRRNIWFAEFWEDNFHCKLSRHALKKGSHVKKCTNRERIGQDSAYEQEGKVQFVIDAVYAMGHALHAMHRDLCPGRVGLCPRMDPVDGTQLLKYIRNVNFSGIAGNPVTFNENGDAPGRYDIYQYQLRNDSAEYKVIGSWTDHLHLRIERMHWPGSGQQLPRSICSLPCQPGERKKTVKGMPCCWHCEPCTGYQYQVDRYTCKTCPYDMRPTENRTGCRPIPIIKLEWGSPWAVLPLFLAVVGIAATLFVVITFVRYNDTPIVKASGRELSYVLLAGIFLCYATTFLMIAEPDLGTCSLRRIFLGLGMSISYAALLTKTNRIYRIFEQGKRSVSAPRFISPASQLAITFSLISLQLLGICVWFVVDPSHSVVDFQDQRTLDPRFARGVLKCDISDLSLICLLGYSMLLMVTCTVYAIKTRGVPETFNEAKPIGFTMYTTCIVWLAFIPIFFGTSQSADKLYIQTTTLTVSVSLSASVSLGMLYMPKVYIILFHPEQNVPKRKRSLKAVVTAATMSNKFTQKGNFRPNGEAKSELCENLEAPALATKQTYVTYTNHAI
# Sequence of Metabotropic glutamate receptor 7 (Q14831 whole entry): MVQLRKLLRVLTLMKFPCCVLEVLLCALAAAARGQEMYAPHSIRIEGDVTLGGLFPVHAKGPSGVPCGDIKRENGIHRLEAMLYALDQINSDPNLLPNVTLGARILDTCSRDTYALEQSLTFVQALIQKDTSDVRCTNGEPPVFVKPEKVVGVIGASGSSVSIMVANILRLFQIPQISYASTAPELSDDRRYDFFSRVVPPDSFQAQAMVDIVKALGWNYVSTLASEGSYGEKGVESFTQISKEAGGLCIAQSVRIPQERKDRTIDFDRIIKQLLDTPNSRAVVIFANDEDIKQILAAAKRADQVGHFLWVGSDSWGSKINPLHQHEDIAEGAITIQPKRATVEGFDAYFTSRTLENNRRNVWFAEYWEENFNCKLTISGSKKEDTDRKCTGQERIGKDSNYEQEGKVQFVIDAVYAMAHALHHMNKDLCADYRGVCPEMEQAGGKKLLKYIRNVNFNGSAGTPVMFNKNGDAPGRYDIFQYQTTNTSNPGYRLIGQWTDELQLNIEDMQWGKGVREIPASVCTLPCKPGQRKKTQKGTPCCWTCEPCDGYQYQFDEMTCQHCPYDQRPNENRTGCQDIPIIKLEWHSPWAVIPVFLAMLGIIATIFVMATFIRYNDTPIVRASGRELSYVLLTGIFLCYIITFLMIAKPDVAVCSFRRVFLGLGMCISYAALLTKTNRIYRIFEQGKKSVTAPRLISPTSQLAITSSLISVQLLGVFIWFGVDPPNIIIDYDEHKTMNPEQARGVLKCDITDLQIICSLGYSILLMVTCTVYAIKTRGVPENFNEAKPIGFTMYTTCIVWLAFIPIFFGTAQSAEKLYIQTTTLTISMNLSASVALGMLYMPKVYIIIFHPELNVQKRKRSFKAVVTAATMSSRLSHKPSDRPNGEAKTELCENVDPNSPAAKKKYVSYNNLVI
# Sequence of Metabotropic glutamate receptor 1 (Q13255 whole entry): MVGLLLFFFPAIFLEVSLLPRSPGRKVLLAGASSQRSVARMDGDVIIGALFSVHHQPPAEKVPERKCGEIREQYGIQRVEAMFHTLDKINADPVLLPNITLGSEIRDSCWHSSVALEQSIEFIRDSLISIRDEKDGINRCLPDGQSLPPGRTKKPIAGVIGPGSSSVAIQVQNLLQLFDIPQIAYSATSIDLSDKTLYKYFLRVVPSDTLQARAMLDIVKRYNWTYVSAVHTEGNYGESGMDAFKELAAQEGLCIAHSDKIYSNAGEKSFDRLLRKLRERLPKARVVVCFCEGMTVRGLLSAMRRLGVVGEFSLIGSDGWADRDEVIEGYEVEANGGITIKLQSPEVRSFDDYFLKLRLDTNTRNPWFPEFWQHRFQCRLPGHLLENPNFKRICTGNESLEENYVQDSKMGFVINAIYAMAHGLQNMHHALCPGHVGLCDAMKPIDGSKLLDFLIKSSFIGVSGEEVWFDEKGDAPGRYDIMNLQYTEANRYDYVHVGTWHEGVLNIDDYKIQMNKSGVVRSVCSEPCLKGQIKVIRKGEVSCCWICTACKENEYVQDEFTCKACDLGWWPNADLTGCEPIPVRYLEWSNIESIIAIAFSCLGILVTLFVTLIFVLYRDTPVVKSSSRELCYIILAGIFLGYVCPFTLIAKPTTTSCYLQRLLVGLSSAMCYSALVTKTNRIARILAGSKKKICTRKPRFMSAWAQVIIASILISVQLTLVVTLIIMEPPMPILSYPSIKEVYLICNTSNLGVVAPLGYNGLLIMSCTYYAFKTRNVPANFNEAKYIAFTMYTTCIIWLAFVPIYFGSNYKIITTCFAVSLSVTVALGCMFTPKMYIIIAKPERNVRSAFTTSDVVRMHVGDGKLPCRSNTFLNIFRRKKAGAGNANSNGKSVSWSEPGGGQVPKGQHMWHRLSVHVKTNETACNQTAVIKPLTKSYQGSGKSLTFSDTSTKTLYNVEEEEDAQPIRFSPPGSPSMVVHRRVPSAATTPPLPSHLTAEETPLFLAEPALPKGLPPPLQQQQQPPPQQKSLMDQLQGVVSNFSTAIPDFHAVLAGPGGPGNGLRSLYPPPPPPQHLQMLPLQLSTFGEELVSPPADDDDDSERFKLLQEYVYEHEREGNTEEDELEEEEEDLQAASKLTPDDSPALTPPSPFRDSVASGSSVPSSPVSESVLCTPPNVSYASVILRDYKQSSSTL
# Sequence of Metabotropic glutamate receptor 5 (P41594 whole entry): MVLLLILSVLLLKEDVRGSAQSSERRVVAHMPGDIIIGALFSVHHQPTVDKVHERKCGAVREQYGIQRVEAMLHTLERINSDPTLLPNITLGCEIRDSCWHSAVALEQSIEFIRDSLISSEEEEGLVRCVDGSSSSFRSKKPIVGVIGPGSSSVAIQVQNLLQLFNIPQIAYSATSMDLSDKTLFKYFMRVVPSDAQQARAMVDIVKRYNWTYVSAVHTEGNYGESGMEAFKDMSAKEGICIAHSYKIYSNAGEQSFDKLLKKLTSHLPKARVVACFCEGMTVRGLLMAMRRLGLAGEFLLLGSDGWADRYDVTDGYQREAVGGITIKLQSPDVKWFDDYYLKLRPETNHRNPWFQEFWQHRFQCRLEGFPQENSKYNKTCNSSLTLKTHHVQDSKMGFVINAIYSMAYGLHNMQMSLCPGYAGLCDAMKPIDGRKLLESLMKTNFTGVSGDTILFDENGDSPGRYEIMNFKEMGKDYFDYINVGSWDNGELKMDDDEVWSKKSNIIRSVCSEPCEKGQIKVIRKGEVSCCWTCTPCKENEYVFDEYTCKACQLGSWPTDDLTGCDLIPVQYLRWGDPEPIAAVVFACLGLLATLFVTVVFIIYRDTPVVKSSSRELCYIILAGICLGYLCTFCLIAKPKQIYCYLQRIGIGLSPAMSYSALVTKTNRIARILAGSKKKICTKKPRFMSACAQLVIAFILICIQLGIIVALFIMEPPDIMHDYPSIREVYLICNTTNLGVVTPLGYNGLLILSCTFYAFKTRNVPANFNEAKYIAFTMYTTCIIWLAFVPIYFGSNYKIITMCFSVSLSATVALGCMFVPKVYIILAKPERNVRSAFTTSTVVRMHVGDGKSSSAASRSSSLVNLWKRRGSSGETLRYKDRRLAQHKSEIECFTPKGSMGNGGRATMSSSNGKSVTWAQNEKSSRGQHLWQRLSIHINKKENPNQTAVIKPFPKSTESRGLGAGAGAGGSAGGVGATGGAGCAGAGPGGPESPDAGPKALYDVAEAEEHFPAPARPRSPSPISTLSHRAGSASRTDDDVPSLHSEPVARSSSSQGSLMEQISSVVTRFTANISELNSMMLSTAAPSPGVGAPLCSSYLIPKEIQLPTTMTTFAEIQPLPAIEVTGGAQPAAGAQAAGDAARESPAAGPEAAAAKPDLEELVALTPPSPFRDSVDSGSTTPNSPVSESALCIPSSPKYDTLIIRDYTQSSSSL
# Sequence of Metabotropic glutamate receptor 3 (Q14832 whole entry): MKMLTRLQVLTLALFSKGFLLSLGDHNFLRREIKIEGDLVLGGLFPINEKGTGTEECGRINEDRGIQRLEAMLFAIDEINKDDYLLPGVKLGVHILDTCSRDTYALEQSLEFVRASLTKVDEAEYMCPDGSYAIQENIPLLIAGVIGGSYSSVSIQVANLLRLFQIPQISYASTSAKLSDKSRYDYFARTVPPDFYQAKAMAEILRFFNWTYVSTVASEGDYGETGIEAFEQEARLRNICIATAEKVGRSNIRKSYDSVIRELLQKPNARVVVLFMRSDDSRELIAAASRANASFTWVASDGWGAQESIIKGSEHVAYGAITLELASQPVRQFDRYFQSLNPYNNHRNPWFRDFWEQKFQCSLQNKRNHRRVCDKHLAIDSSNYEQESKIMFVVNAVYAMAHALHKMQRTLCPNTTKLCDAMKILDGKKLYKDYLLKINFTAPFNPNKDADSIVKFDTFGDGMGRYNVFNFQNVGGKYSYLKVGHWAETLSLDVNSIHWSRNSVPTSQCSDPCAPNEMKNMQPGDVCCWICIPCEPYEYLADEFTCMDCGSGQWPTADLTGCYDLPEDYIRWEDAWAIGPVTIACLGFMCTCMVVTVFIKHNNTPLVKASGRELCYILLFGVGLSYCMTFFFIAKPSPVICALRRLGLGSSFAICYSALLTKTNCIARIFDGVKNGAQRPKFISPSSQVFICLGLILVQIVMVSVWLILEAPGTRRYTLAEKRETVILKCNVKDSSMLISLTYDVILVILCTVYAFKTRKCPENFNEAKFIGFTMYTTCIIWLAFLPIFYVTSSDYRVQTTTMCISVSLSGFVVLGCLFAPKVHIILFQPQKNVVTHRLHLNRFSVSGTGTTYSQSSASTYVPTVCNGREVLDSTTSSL
structure (smiles),measurement,setting,value
Cc1ccoc1C(=O)Nc1c(F)cc(N2C(=O)c3ccccc3C2=O)cc1F,EC50,[1],> 10 µM
Cc1cc(N2C(=O)C3=C(CCCC3)C2=O)c(F)cc1NC(=O)c1ccc(Cl)o1,EC50,[1],> 10 µM
same,EC50,[2],229 nM
same,EC50,[3],400 nM
Cc1cc(NC(=O)c2occc2C)c(F)cc1N1C(=O)c2ccccc2C1=O,fraction unbound,[4],0.012
Cc1nc(C(=O)Nc2cc(F)c(N3C(=O)C4=C(CCCC4)C3=O)cc2C)cs1,EC50,[1],> 10 µM
same,EC50,[2],175 nM
same,EC50,[3],1340 nM
Cc1ccoc1C(=O)Nc1cc(F)c(N2C(=O)c3ccccc3C2=O)c(F)c1,EC50,[1],> 10 µM
Cc1ccoc1C(=O)Nc1cc(F)c(N2C(=O)c3cccc(Cl)c3C2=O)c(F)c1F,fraction unbound,[4],0.012
Cc1ccoc1C(=O)Nc1ccc(N2C(=O)c3ccccc3C2=O)c(C#N)c1,EC50,[1],> 10 µM
Cc1ccoc1C(=O)Nc1c(F)cc(N2C(=O)c3cccc(F)c3C2=O)c(F)c1F,EC50,[1],> 10 µM
Cc1cc(N2C(=O)C3=C(CCCC3)C2=O)c(F)cc1NC(=O)c1occc1C,EC50,[1],0.058 µM
same,EC50,[2],266 nM
same,fraction unbound,[4],0.012
same,EC50,[3],372 nM
Cc1ccoc1C(=O)Nc1c(F)cc(N2C(=O)c3ccc(F)cc3C2=O)c(F)c1F,EC50,[1],> 10 µM
Cc1ccc2c(c1)C(=O)N(c1ccc(NC(=O)c3occc3C)c(F)c1)C2=O,EC50,[1],0.022 µM
same,EC50,[5],> 30 µM
same,EC50,[6],> 30 µM
same,EC50,[2],> 30000 nM
same,EC50,[7],> 30 µM
same,EC50,[8],> 30 µM
same,EC50,[9],> 30 µM
same,EC50,[3],> 30000 nM
Cc1ccoc1C(=O)Nc1c(F)cc(N2C(=O)c3ccc(Cl)cc3C2=O)c(F)c1F,EC50,[1],> 10 µM
O=C(Nc1ccc(N2C(=O)C3C(C2=O)[C@H]2C=C[C@@H]3C2)cc1)c1ccccn1 (some centres not stated),EC50,[1],> 30 µM
Cc1ccoc1C(=O)Nc1c(F)cc(N2C(=O)C3=C(CCCC3)C2=O)c(F)c1F,EC50,[1],> 10 µM
Cc1ccoc1C(=O)Nc1c(F)cc(N2C(=O)[C@H]3CC=CC[C@H]3C2=O)c(F)c1F,EC50,[1],> 10 µM
Cc1cc(N2C(=O)C3=C(CCCC3)C2=O)c(F)cc1NC(=O)c1ccco1,EC50,[1],> 10 µM
same,EC50,[2],89 nM
same,EC50,[3],377 nM
